Laboratory results taken from patent US20090062291A1, “PHOSPHODIESTERASE 10 INHIBITORS” (priority 2007, published 2009).

Target: T1, mPDE10A7 (Mus musculus, UniProt Q8CA95)
T1 sequence (Q8CA95 446-763 limits assumed): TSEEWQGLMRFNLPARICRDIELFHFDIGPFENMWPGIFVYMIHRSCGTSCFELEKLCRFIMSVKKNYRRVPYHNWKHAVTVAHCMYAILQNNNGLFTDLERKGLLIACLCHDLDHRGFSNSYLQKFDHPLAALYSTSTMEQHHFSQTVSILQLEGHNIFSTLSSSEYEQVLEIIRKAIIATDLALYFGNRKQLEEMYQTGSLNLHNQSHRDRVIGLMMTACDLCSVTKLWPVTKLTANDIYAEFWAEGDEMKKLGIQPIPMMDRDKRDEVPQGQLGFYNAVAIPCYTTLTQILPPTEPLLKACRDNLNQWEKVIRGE
Test: mPDE10A7 enzyme inhibition (IMAP fluorescence polarization)
Type: biochemical
Conditions: fluorescein labeled cAMP or cGMP substrate, 30 min at room temperature
Description: Enzyme Activity. To analyze the enzyme activity, 5 μL of serial diluted mPDE10A7 containing lysate were incubated with equal volumes of diluted (100-fold) fluorescein labeled cAMP or cGMP for 30 min in MDC HE 96-well assay plates (Molecular Devices Corp., Sunnyvale Calif.) at room temperature. Both the enzyme and the substrates were diluted in the following assay buffer: Tris/HCl (pH 8.0) 50 mM, MgCl2 5 mM, 2-mercaptoethanol 4 mM, and BSA 0.33 mg/mL. After incubation, the reaction was stopped by adding 20 μL of diluted (400-fold) binding reagents and was incubated for an hour at room temperature. The plates were counted in an Analyst GT (Molecular Devices) for fluorescence polarization. An IMAP assay kit (Molecular Devices) was used to assess enzyme properties of mPDE10A7. Data were analyzed with SOFTMAX PRO software (Molecular Devices).
Enzyme Inhibition. To check the inhibition profile, 10 μL of serial diluted compounds were incubated with 30 μl of diluted PDE enzymes in a 96-well polystyrene assay plate for 30 min at room temperature. After incubation, 5 μL of the compound-enzyme mixture were aliquoted into a MDC HE black plate, mixed with 5 μL of 100-fold diluted fluorescein labeled substrates (cAMP or cGMP), and incubated for 30 min at room temperature. The reaction was stopped by adding 20 μL of diluted binding reagents and counted in an Analyst GT for fluorescence polarization. The data were analyzed with SoftMax Pro.
The IC50 values of a representative number of compounds of the invention in the above assay are as follows: […]

SMILES | IC50 [nM]
COc1cc2nncc(-c3cnc(N4CCC(C(C)(C)O)CC4)c(C4CC4)c3)c2cc1OC [Cpd 1, 2-(1-(3-cyclopropyl-5-(6,7-dimethoxycinnolin-4-yl)pyridin-2-yl)piperidin-4-yl)propan-2-ol] | 1.1
COc1cc2nncc(-c3cnc(N4CCC(O)(c5cccnc5)CC4)c(C4CC4)c3)c2cc1OC [Cpd 15] | 0.2
COc1cc2nncc(-c3ccc(N[C@H]4CCCc5c(Br)cccc54)nc3)c2cc1OC [Cpd 11] | 258
COc1cc2nncc(-c3ccc(NC4CCOc5ccccc54)nc3)c2cc1OC (stereo not shown) [Cpd 8] | 12
COc1cc2nncc(-c3ccc(NC4CCc5cccc(OC)c5C4)nc3)c2cc1OC (stereo not shown) [Cpd 14] | 143

More lines, in order of falling IC50, values ahead:

IC50 [nM] | SMILES
12 | COc1cc2nncc(-c3cnc(NC(C)C)c(C#N)c3)c2cc1OC [Cpd 25]
9 | COc1cc2nncc(-c3cnc(NC(C)C)c(C(N)=O)c3)c2cc1OC [Cpd 26]
2.6 | COc1cc2nncc(-c3ccc(N[C@@H]4CCCc5ncccc54)nc3)c2cc1OC [Cpd 6]
2.3 | COc1cc2nncc(-c3ccc(NC4CCCc5ncccc54)nc3)c2cc1OC (stereo not shown) [Cpd 5]
1.7 | C=Cc1cc(-c2cnnc3cc(OC)c(OC)cc23)cnc1NC(C)C [Cpd 22]
